# Assay results reported in the NIST ThermoML archive (doi:10.1016/j.jct.2013.05.022).
# Numbers after ± are expanded uncertainties.
# Assay: Boiling temperature at pressure P
# Conditions: Liquid, Ebulliometric method (Recirculating still)
SMILES,Boiling temperature at pressure P (13.33 kPa) [°C],Boiling temperature at pressure P (20 kPa) [°C],Boiling temperature at pressure P (26.66 kPa) [°C],Boiling temperature at pressure P (33.33 kPa) [°C],Boiling temperature at pressure P (40 kPa) [°C],Boiling temperature at pressure P (53.33 kPa) [°C],Boiling temperature at pressure P (66.66 kPa) [°C],Boiling temperature at pressure P (79.99 kPa) [°C],Boiling temperature at pressure P (93.33 kPa) [°C],Boiling temperature at pressure P (98.12 kPa) [°C],Boiling temperature at pressure P (101.33 kPa) [°C]
"C=CC(C)(O)CCC=C(C)C (centres undefined) [3,7-dimethyl-1,6-octadien-3-ol]",133.2 ± 0.9,143.7 ± 0.9,152.1 ± 0.9,159 ± 0.8,164.7 ± 0.8,174.1 ± 0.8,182 ± 0.8,188.5 ± 0.8,,,
CCO [ethanol],35.7 ± 0.9,43.1 ± 0.8,48.5 ± 0.8,53 ± 0.8,57 ± 0.8,63.1 ± 0.8,68.2 ± 0.8,72.5 ± 0.8,76.2 ± 0.8,77.7 ± 0.8,78.2 ± 0.8
